Results published in US8759402B2, “Method to inhibit ischemia and reperfusion injury” (Radical Therapeutix, priority 2002, dated 2014).

Key:
[1] = test system: isolated rat hearts; assay: Langendorff perfusion, no-flow ischemia/reperfusion of isolated rat heart (infarct size by TTC, CK release, coronary flow); conditions: for CK release (in words) / infarct size (in words): cimetidine 200-600 μM, sulfaphenazole 10 μM and 300 μM; for infarct size (in words): 2 hours reperfusion; for coronary flow after ischemia: treated hearts, reperfusion
Description: FIG. 2. […] Adult rat hearts were perfused in Langendorff mode for 20 minutes, then subjected to 30 minutes no-flow ischemia followed by a 2 hour reperfusion. […] (A) After 2 hours of reperfusion, hearts were frozen and assessed for infarct size using TTC. Coronary effluent was collected for 15 minutes immediately before and after ischemia and assessed for CK release. […] All procedures were approved by the Animal Care and Use Committee at The Scripps Research Institute (TSRI). […] No-flow ischemia was maintained for 30 minutes and reperfusion was accomplished by restoring flow for 15 minutes for creatine kinase (CK) release determination and dihydroethidium (DHE) staining, or 120 minutes for infarct size determination by triphenyl tetrazolium chloride (TTC) staining. Measurement of CK activity was performed using the CK EC 2.7.3.2 UV-Test kit (Sigma) as per the manufacturer's instructions. The measurement of infarct size after TTC staining was performed as described in Example 1.

[2] = test system: AMMC demethylase (cytochrome P450) in rat liver microsomes; assay: Fluorometric cytochrome P450 assay, AMMC demethylation in rat liver microsomes; type: biochemical; conditions: male, Sprague-Dawley, pH 7.4, probe AMMC (30 μM), AMMC substrate, read-out: IC50, inhibition of AMMC demethylation
Description: Microsomes were isolated from rat livers (Sprague-Dawley, male, 6-8 weeks) by differential centrifugation as described by Walles and coworkers (2001). Homogenized tissue was centrifuged at 11,000 g for 30 minutes at 4° C. The supernatant was further centrifuged at 170,000 g for 60 minutes at 4° C. The resulting pellet was resuspended in KCl buffer and centrifuged at 200,000 g for 40 minutes at 4° C. The microsomal fraction was then transferred into Tris-sucrose buffer (0.25 M sucrose, 20 mM Tris buffer, 5 mM EDTA). Protein concentrations were determined by bicinchoninic acid micro assay (Pierce). Microsomal solutions were aliquoted and stored at −80° C. until further use.

[3] = target: CYP2D6 (Homo sapiens, UniProt P10635); assay: AMMC demethylation by recombinant CYP2D6; type: biochemical; conditions: recombinant system
CYP2D6, sequence (P10635 whole entry): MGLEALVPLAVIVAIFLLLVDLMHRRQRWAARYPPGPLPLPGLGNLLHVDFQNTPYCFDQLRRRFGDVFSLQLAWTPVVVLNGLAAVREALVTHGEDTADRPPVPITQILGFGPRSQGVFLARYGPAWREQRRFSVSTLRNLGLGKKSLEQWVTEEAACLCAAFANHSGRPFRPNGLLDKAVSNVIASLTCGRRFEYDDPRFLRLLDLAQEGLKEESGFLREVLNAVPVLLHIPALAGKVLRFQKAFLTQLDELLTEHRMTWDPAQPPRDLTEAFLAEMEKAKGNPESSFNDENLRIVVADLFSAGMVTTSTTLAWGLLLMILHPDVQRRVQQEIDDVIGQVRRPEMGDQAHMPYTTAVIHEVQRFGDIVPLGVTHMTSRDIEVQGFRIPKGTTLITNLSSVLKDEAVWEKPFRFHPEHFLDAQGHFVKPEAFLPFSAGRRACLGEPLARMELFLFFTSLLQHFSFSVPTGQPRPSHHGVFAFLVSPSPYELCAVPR

[4] = target: T1, CYP2D2 (Rattus norvegicus, UniProt P10634); assay: AMMC demethylase activity in CYP2D2 supersomes; conditions: sulfaphenazole 50 μM
T1 sequence (P10634 1-500): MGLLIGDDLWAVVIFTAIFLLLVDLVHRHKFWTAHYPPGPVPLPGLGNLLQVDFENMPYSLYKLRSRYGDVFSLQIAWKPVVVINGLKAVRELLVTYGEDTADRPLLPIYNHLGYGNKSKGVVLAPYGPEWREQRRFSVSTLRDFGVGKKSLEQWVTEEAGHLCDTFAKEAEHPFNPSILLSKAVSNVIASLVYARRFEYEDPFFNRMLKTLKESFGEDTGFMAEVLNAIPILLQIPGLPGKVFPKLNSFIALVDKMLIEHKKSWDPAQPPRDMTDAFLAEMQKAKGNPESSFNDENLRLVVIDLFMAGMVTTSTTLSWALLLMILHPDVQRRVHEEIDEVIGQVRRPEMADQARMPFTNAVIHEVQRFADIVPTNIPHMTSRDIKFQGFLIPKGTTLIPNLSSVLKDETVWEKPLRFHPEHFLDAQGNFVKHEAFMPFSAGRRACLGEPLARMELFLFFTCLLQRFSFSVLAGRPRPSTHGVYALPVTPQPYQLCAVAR
Description: Effect of sulfaphenazole on AMMC demethylase activity. (A) The rate of AHMC product formation was assessed and the IC50 value was calculated. (B) AHMC product formation was measured over 2 hours in baculovirus-infected CYP2D2-specific supersomes in the presence or absence of sulfaphenazole (50 μM) (SUL).
Assays were carried out in parallel at 37° C. in fluorescence detector microtiter plates (96 well). CYP2D2 supersomes, substrates (AMMC), product standard 3-[2-(N,N-diethyl-N-methylamino)ethyl-]-7-hydroxy-4-methylcoumarin (AMHC), and the NADPH generating system were obtained from BD Gentest (Woburn, Mass.). Reaction components were pre-warmed to 37° C. The assay was initiated by addition of the NADPH-regenerating system to substrate concentrations selected to give linear time-course profiles (AMMC, 30 μM) and rat liver microsomal protein (10 mg/ml) isolated as described above in phosphate buffer (50 mM, pH 7.4) (final organic co-solvent concentration, 0.1% acetonitrile) in the presence or absence of sulphaphenazole (50 μM AMMC). Reaction progression was followed by continuously monitoring AHMC formation (λex=390 nm and λem=460 nm) using a SPECTRAmax™ GEMINI dual-scanning microplate spectrofluorometer for 1 hour at 37° C. The residual absorption due to NADPH was compensated for throughout the analysis. Each assay was performed in at least triplicate. […]

[5] = test system: H9c2 and neonatal rat cardiomyocytes; assay: Hydrogen peroxide-induced apoptosis and superoxide production in cells
[6] = test system: p46 (EF-Tumt) phosphorylation; assay: Phosphorylation of mitochondrial p46 (EF-Tumt) with [γ-32P]ATP in the presence of kinase inhibitors; type: biochemical, rabbit
Description: For phosphorylation reactions, 100 μg of purified mitochondria was incubated in MSE buffer supplemented with 25 mmol/L HEPES-KOH [pH 7.5], 10 mmol/L magnesium acetate, 10 μmol/L ATP (cold), and 10 μCi [γ-^32P]ATP for 30 minutes at 30° C. with or without 250 μg of cytosol. The reaction mixture was subsequently centrifuged for 5 minutes at 10,000 g. The mitochondrial pellet was resuspended in 500 μL of MC buffer and washed twice. The mitochondrial proteins were resolved on a 12% polyacrylamide gel, transferred to nitrocellulose, and detected by autoradiography.
For protein kinase inhibition experiments, cytosols were incubated with the inhibitors at the indicated concentrations, then mitochondria were added and the reaction was initiated with the addition of ATP. Serine/threonine kinase inhibitors (Calbiochem, catalog No. 539572) included bisindolylmaleimide I, 10 nmol/L; H-89, 48 μmol/L; protein kinase G inhibitor, 86 μmol/L; ML-7, 0.3 μmol/L; KN-93, 0.37 μmol/L; and staurosporine, 10 nmol/L. Tyrosine kinase inhibitors (Calbiochem, catalogue No. 657021) included genistein, 25 μmol/L; PP2, 5 nmol/L; AG490, 15 μmol/L; AG1296, 1 μmol/L; and AG1478, 3 nmol/L.

[7] = test system: isolated rabbit heart; assay: Langendorff perfusion, global ischemia/reperfusion of isolated rabbit heart (infarct size by TTC, CK release)
Description: The global ischemia protocol was adapted from that of Tsuchida et al. (1994). All procedures were approved by the Animal Care and Use Committee at The Scripps Research Institute (TSRI). To obtain isolated hearts, hearts were excised from an anesthetized mammal such as a rabbit and quickly cannulated onto the Langendorff perfusion apparatus. The heart is perfused with Krebs-Ringer buffer for 15 minutes before ischemia/reperfusion episodes. No-flow ischemia is maintained for 30 minutes and reperfusion is accomplished by restoring flow for 15 minutes (unless otherwise indicated). Ischemic preconditioning can be induced by three 5 minute cycles of no-flow ischemia and reperfusion immediately preceding the regular ischemia and reperfusion. In brief, the heart was excised from the anesthetized rabbit and quickly cannulated onto the Langendorff perfusion apparatus. The heart was perfused with Krebs-Ringer buffer for 15 minutes before ischemia/reperfusion episodes. No-flow ischemia was maintained for 30 minutes and reperfusion was accomplished by restoring flow for 15 minutes (unless otherwise indicated). Ischemic preconditioning was induced by three 5 minute cycles of no-flow ischemia and reperfusion immediately preceding the regular ischemia and reperfusion. The efficacy of these interventions was verified by measurement of creatine kinase (CK) release and infarct size measurement using triphenyl tetrazolium chloride (TTC) staining (Pain et al., 2000; Downey, 2001). The measurement of infarct size was essentially identical to that detailed by Downey (2001) except for the method of quantitation. After the TTC reaction, the heart slices were scanned into TIFF files and analyzed with Adobe Photoshop 5.5. The images were digitally manipulated in an identical manner to ensure equivalent outcome. […] The histogram counts of red and white were recorded. The percent infarction was calculated as white counts divided by the sum of red plus white counts.

[8] = test system: rabbit heart (circumflex coronary artery occlusion); assay: Rabbit circumflex coronary artery occlusion and reperfusion; type: in vivo; conditions: n=6
Description: (A) At 4 hours, hearts were removed, immediately frozen and blindly assessed for infarct size. The decrease in left ventricular pressure from baseline was assessed after ischemia. […] Animals were mechanically ventilated with room air via a tracheostomy, and the heart was exposed by a median sternotomy. A suture ligature was passed around the circumflex coronary artery so it could be snare-occluded and reperfused as described in Gottlieb et al. (1994). Ischemia was induced by snare occlusion and confirmed by visual inspection. After 30 minutes of ischemia, the ligature was released and the heart was reperfused for 4 hours. The heart was then rapidly excised, and the normal area of perfusion marked by infusion of acridine orange. The heart was frozen and assessed for infarct size the following day using TTC staining. Infarct size as a percentage of the area at risk (demarcated by acridine orange staining) was determined by an observer blinded to the treatment status of the hearts.

[9] = test system: mitochondrial respiratory chain Complex I, II, IV; assay: Oxygen consumption (respiration) of mitochondria from perfused rat hearts; conditions: hearts perfused with chloramphenicol for 30 minutes
Description: FIG. 4. […] (B) Mitochondrial respiration was measured by polarography. […] Error bars represent standard deviation. […] Hearts were rapidly minced in ice-cold MSE buffer (in mmol/L, mannitol 220, sucrose 70, EGTA 2, MOPS 5 (pH 7.4), and taurine 2 supplemented with 0.2% fatty acid-free bovine serum albumin (BSA)). Heart tissue was homogenized in MSE with a Polytron type tissue grinder at 11,000 rpm for 2.5 seconds followed by 2 quick strokes at 500 rpm with a loose fit Potter-Elvehjem tissue grinder. The homogenate was centrifuged at 500 g twice for 5 minutes, saving the supernatant. Mitochondria were pelleted from the supernatant by centrifugation at 3000 g twice, and the pellet was rinsed with MSE buffer. The supernatant was saved as crude cytosol. The final pellet was rinsed and resuspended in 50 μl Incubation Medium (in mmol/L, mannitol 220, sucrose 70, EGTA 1, MOPS 5 (pH 7.4), taurine 2, MgCl2 10, and KH2PO4 5, supplemented with 0.2% fatty acid-free BSA) (Scholte et al., 1997). Mitochondria were incubated for 15 minutes on wet ice and protein concentration was determined with BSA as a standard by a Bradford assay. All work was performed on wet ice at 0° C. Oxygen consumption was measured at 30° C. with a Clark type oxygen electrode (Instech) in 600 μl KCl respiration buffer (in mmol/L: KCl 140, EGTA 1, MOPS 10 (pH 7.4), MgCl2 10, and KH2PO4 5, supplemented with 0.2% fatty acid-free BSA) (Scholte et al., 1997; Chance et al., 1961; McKee et al., 1990). Complex II activity was measured using 200 μg mitochondria with succinate, 5 mM, as a substrate. […] For each complex the ADP-stimulated respiration rate (state 3) was measured after the addition of 2 mM ADP; the ADP-independent respiration rate, oligomycin-insensitive (state 4) was measured after the addition of 2 μM oligomycin; and the maximal respiration rate was measured after uncoupling the mitochondria with 2 μM FCCP. Rates were calculated as nA O2/min/mg protein after subtracting the rate that was insensitive to the inhibitors antimycin A, 1 μM, for complex III, and KCN, 1 mM, for complex IV.

[10] = test system: cytochrome oxidase subunit I; assay: Immunodetection of mitochondrial-encoded proteins after CAP infusion (Example I); set-up: species or system rabbit; conditions: CAP infusion for as little as 15 minutes
[11] = test system: mitochondrial-encoded proteins (CO-1, ND3); assay: Western blotting of mitochondrial-encoded proteins after CAP perfusion (Example II); set-up: species or system rat; conditions: perfusion with CAP for 30 minutes
Description: Error bars represent standard deviation. […] Mitochondria (50 μg) were resolved by SDS-PAGE and transferred to PVDF nylon membranes. […] Detection was performed with ECL (Amersham, Piscataway, N.J.). Non-saturated autoradiographs were quantitated with Scion/NIH Image.

[12] = mitochondria incubated with control or ischemic cytosols, H-89 48 μmol/L, genistein 25 μmol/L

Nc1ccc(S(=O)(=O)Nc2ccnn2-c2ccccc2)cc1 [sulfaphenazole]
CK release (in words) [1]: significant reduction | infarct size (in words) [1]: significant reduction | coronary flow after ischemia [1]: prevent the associated drop in coronary flow | IC50 at 1 h [2]: 500 nM | inhibition of CYP2D6 (AMMC demethylation) [3]: not inhibited | inhibition of CYP2D2 activity (AMMC demethylase) [4]: did not appear to significantly inhibit | rescue from hydrogen peroxide-induced apoptosis and superoxide production [5]: rescued

O=c1c(-c2ccc(O)cc2)coc2cc(O)cc(O)c12 [genistein]
phosphorylation of p46 ([6]; mitochondria from an ischemic heart incubated with genistein, no cytosol): able to inhibit | phosphorylation of p46 [6, 12]: reduced phosphorylation

gentamicin sulfate
cardioprotection ([1]; gentamicin in perfusion buffer): not cardioprotective

CN/C(=N/CCSCc1nc[nH]c1C)NC#N [cimetidine]
CK release (in words) [1]: reduced CK release | infarct size (in words) [1]: dose-dependent reduction | coronary flow after ischemia [1]: prevent the associated drop in coronary flow

O=S(=O)(NCCNC/C=C/c1ccc(Br)cc1)c1cccc2cnccc12 [H-89]
phosphorylation of p46 [6, 12]: did not affect

O=C(N[C@H](CO)[C@H](O)c1ccc([N+](=O)[O-])cc1)C(Cl)Cl [CAP, chloramphenicol]
infarct size after ischemia and reperfusion ([7]; 100 μg/mL CAP in buffer throughout: 15 min stabilization, 30 min global ischemia, 2 h reperfusion, mean±SEM, untreated 64.1 (±4.1)): 43.1 (±6.4) | infarct size ([7]; CAP administered only in the last 15 minutes of the 2 hour reperfusion (control for TTC interference)): 69.2±5.7 | CK release after global ischemia ([7]; CAP pretreatment, 100 μg/mL): reduced | infarct size ([1]; CAP 300 μm before and after global no-flow ischemia (I/R+CAP), 30 min ischemia, 2 h reperfusion, SEM, n=5, untreated 43.2±3.2%): 16.0±3.6% | CK released after ischemia ([1]; CAP administered prior to ischemia, SEM, n=5, untreated 2.25±0.28): 0.27±0.13 U/15 min | infarct size ([1]; chloramphenicol administered immediately after ischemia (at reperfusion), n=5, untreated 43.2%): 21.7% | reduction of infarct size ([1]; pretreatment of hearts prior to ischemia and reperfusion (summary)): about 90% | coronary flow after ischemia [1]: prevent the associated drop in coronary flow | infarct size, of the area at risk ([8]; CAP 20 mg/kg i.v. 30 min before 30 min occlusion, 4 h reperfusion, untreated 49.3 ±17.7): 18.3% | post-ischemic hypotension (decrease in left ventricular pressure from baseline) ([8]; CAP 20 mg/kg i.v., untreated −34.2±2.3): −13.3±2.2 mm H2O | Complex I State 4 ([9]; −CAP 13.74 ± 6.33): 12.09 ± 4.59 n Atoms O/min/mg | Complex II State 4 ([9]; −CAP 21.70 ± 5.89): 23.04 ± 7.32 n Atoms O/min/mg | Complex II State 3 ([9]; −CAP 85.47 ± 22.2): 83.58 ± 14.4 n Atoms O/min/mg | Complex IV State 4 ([9]; −CAP 113.99 ± 21): 116.89 ± 23 n Atoms O/min/mg | Complex I State 3 ([9]; −CAP 158.57 ± 32): 162.99 ± 31 n Atoms O/min/mg | Complex IV State 3 ([9]; −CAP 209.85 ± 40): 201.09 ± 23 n Atoms O/min/mg | immunodetection of mitochondrial-encoded cytochrome oxidase I [10]: near-complete loss | levels of mitochondrial-encoded proteins and respiratory chain activity [11]: not sufficient to alter
